According to patent publication US7355074B2, “Compounds having aromatic rings and side-chain amide-functionality and a method for transporting monovalent anions across biological membranes using the same” (The University of Maryland, priority 2003, dated 2008):

Key:
[1] = voltage-clamp experiments on black lipid membranes; format: biochemical
Experimental: FIG. 10(A) represents current events across a BLM in voltage clamp experiments after application of calixarene tetrabutylamide 2 ([…]). The voltage applied was −20 mV for all three recordings. (B) The distribution of conductance ranges observed in voltage clamp experiments with 2 acting as an ion channel.
The voltage-clamp assay was conducted using a setup with two chambers, each filled with an electrolyte solution and separated by a BLM. After voltage was applied across the membrane, a solution of 2 was added to one of the chambers. Subsequent current across the membrane was attributed to ion transport mediated by 2, since control experiments wit DMSO solvent were negative. The abrupt changes in current intensity (events) are consistent with an ion channel mechanism. The relatively long-lasting open states indicate that channels formed by calixarene tetrabutylamide 2 are stable.
Voltage-Clamp Experiments. […] Once calixarene tetrabutylamide 2 was incorporated into the lipid, the current through the membrane was recorded using both a chart recorder and directly digitized and stored as a computer file. The conductance values were calculated by dividing the current by the applied voltage. The events were grouped into conductance ranges of equal magnitude for the purpose of showing the distribution of recorded conductances.

35Cl NMR transport assay = format: biochemical; conditions: vesicles with NaCl and Co2+ inside, Co2+-free Na2SO4 buffer outside; 2 mol %
Experimental: FIG. 2A illustrates ^35Cl NMR spectra of a suspension of giant vesicles (29 mM EYPC, 100 mM NaCl, 10 mM CoCl2, 10 mM NanH3-nPO4, n=1, 2 pH 5.3) suspended in 75 mM […] buffer (NanH3-nPO4, n=1, 2, pH spectra correspond to a) giant vesicles in the absence of 3, b) giant vesicles after application of 2 mol % 3 in DMSO, c) vesicles after lysis with Triton X-100.
Liposome Preparation for ^35Cl NMR Assays. Egg yolk L-α-phosphatidylcholine (1.0 mg/mL EYPC ethanol solution, 250 μL, […]) was dissolved in a CHCl3/MeOH mixture, the solution was evaporated under reduced pressure and the resulting thin film was dried under high vacuum for 2.5 h. The lipid film was hydrated in 1.0 mL of phosphate buffer (9:1 H2O:D2O, 10 mM sodium phosphate, pH=5.4, 100 mM NaCl) containing 10 mM CoCl2 (^35Cl shift reagent) for 40 min. During hydration, the suspension was submitted to 5 freeze-thaw cycles (liquid nitrogen, water at rt). The giant liposome suspension (1 mL) was submitted to high-pressure extrusion at rt (41 passes through a 5.0 μm polycarbonate membrane). […]
^35Cl NMR Measurements. All ^35Cl NMR spectra were recorded on a Bruker DRX500 instrument operating at 49.0023 MHz for the ^35Cl resonance and chemical shift values are reported in ppm relative to 25 mM NaCl in D2O at 0 ppm (external standard). […]

| stability of the channels (open states) [1] | Structure (SMILES) | centre of the conductance distribution ([1]; 480 events, 1 M KCl) | outward Cl− transport (35Cl NMR signal) (35Cl NMR transport assay) |
| --- | --- | --- | --- |
| stable | CCCCNC(=O)COc1c2cccc1Cc1cccc(c1OCC(=O)NCCCC)Cc1cccc(c1OCC(=O)NCCCC)Cc1cccc(c1OCC(=O)NCCCC)C2 [calix[4]arene tetrabutylamide 2, Calix[4]arene tetrabutylamide] | ~100 pS | – |
| – | CCCCNC(=O)COc1ccccc1Cc1cccc(Cc2ccccc2OCC(=O)NCCCC)c1OCC(=O)NCCCC [trimer 3, Tris-(N-butyl-2-phenoxyacetamide)] | – | enhancement of the extravesicular Cl^− peak |
